Values after ≈ are worked out from the molar mass of the structure shown.
Columns and labels:
Type in all cases: functional
Candida albicans = experiment: Antifungal activity against Candida albicans MTCC 227 assessed as growth inhibition after 24 to 48 hr by NCCLS broth microdilution method
Pseudomonas aeruginosa = experiment: Antibacterial activity against Pseudomonas aeruginosa MTCC 1688 assessed as growth inhibition after 24 to 48 hr by NCCLS broth microdilution method
Escherichia coli = experiment: Antibacterial activity against Escherichia coli MTCC 443 assessed as growth inhibition after 24 to 48 hr by NCCLS broth microdilution method
Streptococcus pyogenes = experiment: Antibacterial activity against Streptococcus pyogenes MTCC 442 assessed as growth inhibition after 24 to 48 hr by NCCLS broth microdilution method
Staphylococcus aureus = experiment: Antibacterial activity against Staphylococcus aureus MTCC 96 assessed as growth inhibition after 24 to 48 hr by NCCLS broth microdilution method
Aspergillus niger = experiment: Antifungal activity against Aspergillus niger MTCC 282 assessed as growth inhibition after 24 to 48 hr by NCCLS broth microdilution method
Aspergillus clavatus = experiment: Antifungal activity against Aspergillus clavatus MTCC 1323 assessed as growth inhibition after 24 to 48 hr by NCCLS broth microdilution method

| Molecule | MIC (Candida albicans) | MIC (Pseudomonas aeruginosa) | MIC (Escherichia coli) | MIC (Streptococcus pyogenes) | MIC (Staphylococcus aureus) | MIC (Aspergillus niger) | MIC (Aspergillus clavatus) |
| --- | --- | --- | --- | --- | --- | --- | --- |
| C=CCn1c(=O)c(C2C(C#N)=C(N)OC3=C2C(=O)c2ccccc2C3=O)cc2cc(OC)ccc21 (stereo not drawn) | 1000 µg/mL (≈ 2150 µM) | 200 µg/mL (≈ 430 µM) | 125 µg/mL (≈ 269 µM) | 200 µg/mL (≈ 430 µM) | 250 µg/mL (≈ 537 µM) | > 1000 µg/mL | 1000 µg/mL (≈ 2150 µM) |
| O=C(O)c1cn(C2CC2)c2cc(N3CCNCC3)c(F)cc2c1=O [CIPROFLOXACIN] |  |  | 25 µg/mL (≈ 75.4 µM) | 50 µg/mL (≈ 151 µM) | 50 µg/mL (≈ 151 µM) |  |  |
| COC1=CC(=O)C[C@@H](C)[C@]12Oc1c(Cl)c(OC)cc(OC)c1C2=O [GRISEOFULVIN] | 500 µg/mL (≈ 1420 µM) |  |  |  |  | 100 µg/mL (≈ 283 µM) | 100 µg/mL (≈ 283 µM) |
| C=CCn1c(=O)c(C2C(C(=O)OC(C)C)=C(N)OC3=C2C(=O)c2ccccc2C3=O)cc2cc(Cl)ccc21 (stereo not drawn) | 500 µg/mL (≈ 942 µM) | 100 µg/mL (≈ 188 µM) | 200 µg/mL (≈ 377 µM) | 500 µg/mL (≈ 942 µM) | 500 µg/mL (≈ 942 µM) | 100 µg/mL (≈ 188 µM) | 250 µg/mL (≈ 471 µM) |
| C=CCn1c(=O)c(C2C(C#N)=C(N)OC3=C2C(=O)c2ccccc2C3=O)cc2cc(C)ccc21 (stereo not drawn) | 1000 µg/mL (≈ 2220 µM) | 500 µg/mL (≈ 1110 µM) | 250 µg/mL (≈ 556 µM) | 100 µg/mL (≈ 222 µM) | 200 µg/mL (≈ 445 µM) | 500 µg/mL (≈ 1110 µM) | 1000 µg/mL (≈ 2220 µM) |
| C=CCn1c(=O)c(C2C3=C(CCCC3=O)OC3=C2C(=O)c2ccccc2C3=O)cc2cc(C)ccc21 (stereo not drawn) | 500 µg/mL (≈ 1050 µM) | 250 µg/mL (≈ 524 µM) | 500 µg/mL (≈ 1050 µM) | 250 µg/mL (≈ 524 µM) | 250 µg/mL (≈ 524 µM) | 1000 µg/mL (≈ 2090 µM) | 1000 µg/mL (≈ 2090 µM) |
| C=CCn1c(=O)c(C2C3=C(CCCC3=O)OC3=C2C(=O)c2ccccc2C3=O)cc2ccccc21 (stereo not drawn) | 250 µg/mL (≈ 539 µM) | 250 µg/mL (≈ 539 µM) | 200 µg/mL (≈ 432 µM) | 125 µg/mL (≈ 270 µM) | 200 µg/mL (≈ 432 µM) | 500 µg/mL (≈ 1080 µM) | 500 µg/mL (≈ 1080 µM) |
| CC1(C)S[C@@H]2[C@H](NC(=O)[C@H](N)c3ccccc3)C(=O)N2[C@H]1C(=O)O [AMPICILLIN] |  |  | 100 µg/mL (≈ 286 µM) | 100 µg/mL (≈ 286 µM) | 250 µg/mL (≈ 715 µM) |  |  |
| C=CCn1c(=O)c(C2C3=C(CC(C)(C)CC3=O)OC3=C2C(=O)c2ccccc2C3=O)cc2ccccc21 (stereo not drawn) | > 1000 µg/mL | 100 µg/mL (≈ 203 µM) | 100 µg/mL (≈ 203 µM) | 200 µg/mL (≈ 407 µM) | 250 µg/mL (≈ 509 µM) | > 1000 µg/mL | > 1000 µg/mL |
| C=CCn1c(=O)c(C2C3=C(CC(C)(C)CC3=O)OC3=C2C(=O)c2ccccc2C3=O)cc2cc(OC)ccc21 (stereo not drawn) | 1000 µg/mL (≈ 1920 µM) | 100 µg/mL (≈ 192 µM) | 125 µg/mL (≈ 240 µM) | 250 µg/mL (≈ 479 µM) | 500 µg/mL (≈ 959 µM) | 500 µg/mL (≈ 959 µM) | 500 µg/mL (≈ 959 µM) |
| C=CCn1c(=O)c(C2C3=C(CCCC3=O)OC3=C2C(=O)c2ccccc2C3=O)cc2cc(Cl)ccc21 (stereo not drawn) | 500 µg/mL (≈ 1000 µM) | 62.5 µg/mL (≈ 126 µM) | 250 µg/mL (≈ 502 µM) | 50 µg/mL (≈ 100 µM) | 500 µg/mL (≈ 1000 µM) | 1000 µg/mL (≈ 2010 µM) | 100 µg/mL (≈ 201 µM) |
| O=C(N[C@H](CO)[C@H](O)c1ccc([N+](=O)[O-])cc1)C(Cl)Cl [CHLORAMPHENICOL] |  | 50 µg/mL (≈ 155 µM) | 50 µg/mL (≈ 155 µM) | 50 µg/mL (≈ 155 µM) | 50 µg/mL (≈ 155 µM) |  |  |
| C=CCn1c(=O)c(C2C(C#N)=C(N)OC3=C2C(=O)c2ccccc2C3=O)cc2ccccc21 (stereo not drawn) | 250 µg/mL (≈ 574 µM) | 250 µg/mL (≈ 574 µM) | 100 µg/mL (≈ 230 µM) | 250 µg/mL (≈ 574 µM) | 62.5 µg/mL (≈ 144 µM) | 500 µg/mL (≈ 1150 µM) | > 1000 µg/mL |
| C=CCn1c(=O)c(C2C(C(=O)OC(C)C)=C(N)OC3=C2C(=O)c2ccccc2C3=O)cc2cc(C)ccc21 (stereo not drawn) | > 1000 µg/mL | 250 µg/mL (≈ 490 µM) | 25 µg/mL (≈ 49 µM) | 500 µg/mL (≈ 979 µM) | 125 µg/mL (≈ 245 µM) | 1000 µg/mL (≈ 1960 µM) | 500 µg/mL (≈ 979 µM) |
| C=CCn1c(=O)c(C2C(C(=O)OC(C)C)=C(N)OC3=C2C(=O)c2ccccc2C3=O)cc2cc(OC)ccc21 (stereo not drawn) | 1000 µg/mL (≈ 1900 µM) | 200 µg/mL (≈ 380 µM) | 250 µg/mL (≈ 475 µM) | 200 µg/mL (≈ 380 µM) | 100 µg/mL (≈ 190 µM) | 500 µg/mL (≈ 950 µM) | 500 µg/mL (≈ 950 µM) |
| C=CCn1c(=O)c(C2C3=C(CC(C)(C)CC3=O)OC3=C2C(=O)c2ccccc2C3=O)cc2cc(Cl)ccc21 (stereo not drawn) | > 1000 µg/mL | 250 µg/mL (≈ 475 µM) | 200 µg/mL (≈ 380 µM) | 500 µg/mL (≈ 951 µM) | 200 µg/mL (≈ 380 µM) | 1000 µg/mL (≈ 1900 µM) | 100 µg/mL (≈ 190 µM) |
| C=CCn1c(=O)c(C2C3=C(CCCC3=O)OC3=C2C(=O)c2ccccc2C3=O)cc2cc(OC)ccc21 (stereo not drawn) | 1000 µg/mL (≈ 2030 µM) | 20 µg/mL (≈ 40.5 µM) | 250 µg/mL (≈ 507 µM) | 500 µg/mL (≈ 1010 µM) | 500 µg/mL (≈ 1010 µM) | 100 µg/mL (≈ 203 µM) | 1000 µg/mL (≈ 2030 µM) |
| C=CCn1c(=O)c(C2C(C(=O)OC(C)C)=C(N)OC3=C2C(=O)c2ccccc2C3=O)cc2ccccc21 (stereo not drawn) | 500 µg/mL (≈ 1010 µM) | 50 µg/mL (≈ 101 µM) | 200 µg/mL (≈ 403 µM) | 250 µg/mL (≈ 504 µM) | 500 µg/mL (≈ 1010 µM) | 250 µg/mL (≈ 504 µM) | > 1000 µg/mL |
| C=CCn1c(=O)c(C2C(C#N)=C(N)OC3=C2C(=O)c2ccccc2C3=O)cc2cc(Cl)ccc21 (stereo not drawn) | 500 µg/mL (≈ 1060 µM) | 500 µg/mL (≈ 1060 µM) | 200 µg/mL (≈ 426 µM) | 100 µg/mL (≈ 213 µM) | 500 µg/mL (≈ 1060 µM) | 1000 µg/mL (≈ 2130 µM) | 100 µg/mL (≈ 213 µM) |
| NYSTATIN | 100 µg/mL |  |  |  |  | 100 µg/mL | 100 µg/mL |
| C=CCn1c(=O)c(C2C3=C(CC(C)(C)CC3=O)OC3=C2C(=O)c2ccccc2C3=O)cc2cc(C)ccc21 (stereo not drawn) | > 1000 µg/mL | 500 µg/mL (≈ 989 µM) | 62.5 µg/mL (≈ 124 µM) | 250 µg/mL (≈ 494 µM) | 500 µg/mL (≈ 989 µM) | 125 µg/mL (≈ 247 µM) | 1000 µg/mL (≈ 1980 µM) |

From ChEMBL document CHEMBL3044821, “Microwave-induced CAN promoted atom-economic synthesis of 1H-benzo[b]xanthene and 4H-benzo[g]chromene derivatives of N-allyl quinolone and their antimicrobial activity” (2013)
